# Laboratory results: article PMC12670160, “A drug-repurposing screen of FDA- and EMA-approved drugs identifies two NF-κB inhibitors active against eumycetoma” (Journal of Antimicrobial Chemotherapy, 2025)
# Where two headings read alike, the source gives them in different places.
# Columns and labels:
# [1] = system: M. mycetomatis isolate MM55; test: Oncode library screen at 2 µM, CLSI-based in vitro susceptibility assay with CellTiter-Glo (metabolic activity); type: cell-based, Madurella mycetomatis; settings: primary screen, strain MM55, 20% or below = inhibition
# Protocol: M. mycetomatis isolate MM55 was used to screen the Oncode library. This strain was kindly provided by Prof. A. Fahal of the Mycetoma Research Centre in 1999. The most promising hit compounds were also screened against M. mycetomatis isolates P1 and I1, which originated from Mali and India, respectively.[17] The three M. mycetomatis isolates were identified by ITS sequencing and maintained at −80°C at Erasmus MC. Prior to in vitro screening, isolates were cultured on Sabouraud agar plates (BD, Erembodegem, Belgium) at 37°C.
# The Oncode Drug Repurposing library was based on the drug repurposing library from the Drug Repurposing Hub of the Broad Institute and recreated by the Oncode institute.[13] The library contained 5631 drugs.[18] A copy of this library was plated out on 384-well plates with lids (cat no. 655180; Greiner Bio-One, Alphen aan den Rijn, The Netherlands) by the Leiden University Medical Center. Each well of the 384-well plates contained 0.6 µL of a 200 µM stock concentration of compound, resulting in a final concentration of 2 µM when the fungus was added. From the previous libraries we screened, we noted that there are several compounds able to inhibit M. mycetomatis at this concentration in vitro. Furthermore, this concentration could also be reached in the G. mellonella larvae.[8],[11] The prepared 384-well plates were transferred on dry ice to the Erasmus MC and stored at −80°C until they were screened. We created a second library from the original library, containing only those 29 compounds that were active in the first screen.
# (§1) . Each plate also contained a growth control (60 µL of M. mycetomatis hyphal suspension, plus 0.6 µL of DMSO) and a negative control (60 µL of culture medium, plus 0.6 µL of DMSO). Plates were then incubated for 4 days at 37°C, after which 30 µL of CellTiter-Glo 3D Cell Viability reagent was added to every well.[19] After 25 min of incubation at room temperature, the luminescence was measured with a CytoFluor Series 4000 luminometer (PerSeptive Biosystems, Framingham, MA, USA). To determine the metabolic activity, the following formula was used:
# (§2) Percentagemetabolicactivity=(Absorbancetestluminensence−AbsorbanceNCluminensence/AbsorbanceGCluminensence−AbsorbanceNCluminensence)×100
# (§3) where, GC is growth control and NC is negative control. The luminescence measured for the GC is considered as 100% metabolic activity. The luminescence for the NC is considered as 0% metabolic activity.
# eumycetoma = settings: first 6 months of treatment, cited from earlier work
# M. mycetomatis strain P1 = test: IC50 and MIC determination, CellTiter-Glo, strain P1; type: cell-based, Madurella mycetomatis; settings: Madurella mycetomatis, P1
# [2] = system: M. mycetomatis strain mm55; test: IC50 and MIC determination, CellTiter-Glo, strain mm55; type: cell-based, Madurella mycetomatis; settings: Madurella mycetomatis; for IC50: concentration inhibiting 50% of fungal hyphae growth; for MIC: concentration with complete growth inhibition
# M. mycetomatis [3] = test: In vitro susceptibility, averages over M. mycetomatis isolates (average metabolic activity at 2 µM, mean MIC); type: cell-based; settings: Madurella mycetomatis, 96 h, 4 days at 37°C, CellTiter-Glo, average of 3 isolates, 20% or below = inhibition
# Protocol: M. mycetomatis isolate MM55 was used to screen the Oncode library. This strain was kindly provided by Prof. […] The three M. mycetomatis isolates were identified by ITS sequencing and maintained at −80°C at Erasmus MC. Prior to in vitro screening, isolates were cultured on Sabouraud agar plates (BD, Erembodegem, Belgium) at 37°C.
# The Oncode Drug Repurposing library was based on the drug repurposing library from the Drug Repurposing Hub of the Broad Institute and recreated by the Oncode institute.[13] […] Each well of the 384-well plates contained 0.6 µL of a 200 µM stock concentration of compound, resulting in a final concentration of 2 µM when the fungus was added. […] Furthermore, this concentration could also be reached in the G. mellonella larvae.[8],[11] The prepared 384-well plates were transferred on dry ice to the Erasmus MC and stored at −80°C until they were screened.
# as §1, with “Each” for “. Each”
# as §2, §3
# M. mycetomatis strain I1 = test: IC50 and MIC determination, CellTiter-Glo, strain I1; type: cell-based, Madurella mycetomatis; settings: Madurella mycetomatis, I1
# [4] = system: M. mycetomatis-infected G. mellonella larvae; settings: cited from earlier work
# M. mycetomatis [5] = system: M. mycetomatis; design: method as in PMID 35398930, PMID 15793113, PMID 36005544, PMID 34181477, PMID 22964246; settings: against M. mycetomatis; cited from earlier work
# M. mycetomatis [6] = test: In vitro susceptibility, averages over M. mycetomatis isolates (average metabolic activity at 2 µM, mean MIC); type: cell-based, Madurella mycetomatis; settings: Madurella mycetomatis; mean/average over strains MM55, P1 and I1
# [7] = M. mycetomatis-infected G. mellonella larvae
# [8] = only at concentrations higher than used in human patients
smiles,measurement,setting,value
COC(=O)C1=C(C#N)NC(C)=C(C(=O)OC(C)C)C1c1cccc([N+](=O)[O-])c1 (stereo not drawn) [nilvadipine arc029],Madurella mycetomatis metabolic activity at 2µM (%),[1],85.2%
C[C@@H](c1nc(-c2ccc(C#N)cc2)cs1)[C@@](Cn1cncn1)(OCOP(=O)(O)O)c1ccc(F)cc1F [fosravuconazole],lesion size or β-glucan levels,eumycetoma; 200 mg/week,no reduction
same,lesion size or β-glucan levels,eumycetoma; 300 mg/week,no reduction
CC(C)OC(=O)C1=CN(C(=O)c2ccc(F)c(F)c2)CC(C)(C)c2c1[nH]c1ccccc21 [turofexorate isopropyl xl335],Madurella mycetomatis metabolic activity at 2µM (%),[1],92.4%
CC(=O)N1CCN(c2ccc(OCC3COC(Cn4ccnc4)(c4ccc(Cl)cc4Cl)O3)cc2)CC1 (stereo not drawn) [Ketoconazole],IC50,M. mycetomatis strain P1,0.17 µM
same,MIC,M. mycetomatis strain P1,0.25 µM
same,IC50,[2],0.66 µM
same,MIC,[2],1 µM
same,activity at 2 µM,M. mycetomatis [3],0.9%
same,IC50,M. mycetomatis strain I1,0.05 µM
same,MIC,M. mycetomatis strain I1,0.06 µM
same,larval survival,[4]; [7],No prolonged larval survival
O=C(NC[C@H]1CN(c2ccc(N3CCOCC3=O)cc2)C(=O)O1)c1ccc(Cl)s1 [rivaroxaban xarelto],Madurella mycetomatis metabolic activity at 2µM (%),[1],98.3%
CC[C@@H]([C@H](C)O)n1ncn(-c2ccc(N3CCN(c4ccc(OC[C@@H]5CO[C@@](Cn6cncn6)(c6ccc(F)cc6F)C5)cc4)CC3)cc2)c1=O [Posaconazole],IC50,M. mycetomatis strain P1,< 0.03 µM
same,MIC,M. mycetomatis strain P1,0.03 µM
same,IC50,[2],0.13 µM
same,MIC,[2],0.25 µM
same,activity at 2 µM,M. mycetomatis [3],1.9%
same,IC50,M. mycetomatis strain I1,< 0.03 µM
same,MIC,M. mycetomatis strain I1,0.03 µM
same,MIC50,M. mycetomatis [5],0.03 mg/L
same,MIC,M. mycetomatis [6],< 0.03 µM
same,larval survival,[4]; [8],Prolonged survival
Cc1ccc(-c2c(-c3nn(C)c4ncnc(N5CC[C@H](N6CCCCC6)C5)c34)cnn2C)cc1 [pf4981517],Madurella mycetomatis metabolic activity at 2µM (%),[1],79.1%
C[C@@H](c1ncncc1F)[C@](O)(Cn1cncn1)c1ccc(F)cc1F [Voriconazole],IC50,M. mycetomatis strain P1,0.33 µM
same,MIC,M. mycetomatis strain P1,0.5 µM
same,IC50,[2],0.63 µM
same,MIC,[2],1 µM
same,activity at 2 µM,M. mycetomatis [3],1.1%
same,IC50,M. mycetomatis strain I1,0.2 µM
same,MIC,M. mycetomatis strain I1,0.25 µM
same,MIC50,M. mycetomatis [5],0.125 mg/L
same,larval survival,[4]; [7],No prolonged larval survival
C[C@@H](c1nc(-c2ccc(C#N)cc2)cs1)[C@](O)(Cn1cncn1)c1ccc(F)cc1F [Ravuconazole],IC50,M. mycetomatis strain P1,< 0.03 µM
same,MIC,M. mycetomatis strain P1,0.06 µM
same,IC50,[2],0.17 µM
same,MIC,[2],0.25 µM
same,activity at 2 µM,M. mycetomatis [3],1.3%
same,IC50,M. mycetomatis strain I1,< 0.03 µM
same,MIC,M. mycetomatis strain I1,0.03 µM
same,MIC50,M. mycetomatis [5],0.016 mg/L
same,larval survival,[4]; [8],Prolonged survival
